# Measurements as given in PMC10641921, “Optimization of mTOR Inhibitors Using Property-Based Drug Design and Free–Wilson Analysis for Improved In Vivo Efficacy” (ACS Medicinal Chemistry Letters, 2023).
# pIC50: −log10 of the molar value.
# System: CYP 2C8, 1A2, 2C9, 2C19, 2D6 and 3A4
# Experiment: CYP inhibition, all isoforms tested
# Assay type: in vitro ADME
# Settings: human
# Text: We also desired to remove the aniline structural alert present in the aryl urea moiety, which has been associated with idiosyncratic adverse drug reactions.[16]
row,SMILES,pIC50
1,C[C@@]12COCCN1c1nc(-c3cccc4[nH]ccc34)ncc1N(C1CCOCC1)C2=O [4e],< 4.40

# System: pAKT-S473 in PC-3 cells (TORC2)
# Experiment: Cellular p-AKT (ser473) AlphaScreen assay in PC-3 cells (TORC2 activity)
# Assay type: cell-based, human
# Settings: Homo sapiens, PC-3, PC-3 cell line; read-out: pAKT S473 Cell IC50
# Experimental: The target product profile for 1 and the next-generation analogs described here was for a dual inhibitor against both TORC1 and TORC2.
# FRAP1 (mTOR) recombinant protein and GFP-4E-BP1 were purchased from Invitrogen (Carlsbad, CA, US).
# The kinase activity assay was conducted in 50 mM Hepes buffer containing 10 mM MgCl2, 0.01% Brij, 0.2 mM EDTA, 2 mM DTT and 1% DMSO (after compound addition) at pH 7.3.
# The IC50 value for each compound was determined in the presence of compound (various concentrations, from 0 to 10 μM) and a fixed amount of ATP (50 μM, final concentration), substrate GFP-4E-BP1 (400 nM, final concentration). The enzymatic reaction was initiated by adding FRAP1 (mTOR) (2 nM, final concentration). The assay was conducted at room temperature (~22 °C). After 30 min, the enzymatic reaction was stopped using Tb-anti-p4E-BP1 (2 nM final concentration, Invitrogen) and EDTA (20 mM final concentration, Sigma) in TR-FRET dilution buffer provided by Invitrogen. All the reagents were dispensed using a Multidrop Combi reagent dispenser (ThermoFisher Scientific, Waltham, […]
# The release of product was detected using a BMG PHERAstar plate reader (BMG LABTECH, Ortenberg, Germany) and the Lantha Screen module (337 nm excitation wavelength) and measuring the ratio of fluorescence 520/490 nm (emission wavelengths). Experimental data was fitted using Eq. (1):
# Vi and Vo are the rates of the enzyme activity in the presence and in the absence of inhibitor; n is the Hill coefficient; I is the free inhibitor concentration; IC 50 is a measure of potency that is equivalent to a […]
# Cellular p-AKT (ser473) assay in PC-3 cells
# PC-3 cells (PTEN deleted, human prostate cell line) were maintained in F12K media with 10% heat-inactivated fetal bovine serum (FBS) in 37 °C, 5% CO2 incubator. This method describes the procedure […]
# from Perkin Elmer (catalog# TGRAS500). On day 1, 50,000 PC-3 cells were plated in 160 µL complete […]
# Plates were placed in 37 °C, 5%
# CO2 incubator for 24 h. On day 2, all media was removed and replaced with 160 µL starvation media which is F12K media (no FBS) and 0.1% BSA. Plates are placed in 37 °C, 5% CO2 incubator for 16 h. On day 3, compounds were both solubilized and serially diluted in DMSO and added to a secondary plate containing starvation media. 40 µL of compound/starvation media were added to the 160 µL in cell plate and plates were placed back in the incubator for 1 h. Cells were then activated by adding 22 µL FBS (for a final concentration of 10% FBS) for 10 min in the incubator. Media was removed from the well and cells were lysed in 100 µL SureFire kit lysis buffer and then shake n for 15 min at 900 rpm. AlphaScreen […]
# assay was performed according to manufacturer’s instructions. 4 µL of lysate was added to PerkinElmer 96-well Proxiplate then 5 µL of Reaction Buffer plus Activation Buffer. Plates were shaken for 2 h at room temperature. 2 µL of Donor Beads in Dilution Buffer were added to the plate and the plate was shaken for 2 h at room temperature. The plate was read using BMG Labtech PHERAstar using AlphaScreen settings. Each analog was run in duplicate wells and a single IC50 value was calculated in […]
row,SMILES,pIC50
1,C[C@@]12COCCN1c1nc(-c3cnc4cc[nH]c4c3)ncc1N(CC1CC1)C2=O [3c],7.04
2,COCCCN1C(=O)[C@]2(C)COCCN2c2nc(-c3cnc4[nH]ccc4c3)ncc21 [13b],7.24
3,C[C@@]12COCCN1c1nc(-c3cnc4cc[nH]c4c3)ncc1N(C1CCOCC1)C2=O [4c],7.00
4,C[C@@]12COCCN1c1nc(-c3cccc4[nH]ccc34)ncc1N([C@H]1CC[C@@H](O)CC1)C2=O [14b],7.85
5,C[C@@]12COCCN1c1nc(-c3cnc4[nH]ccc4c3)ncc1N(C1CCOCC1)C2=O [4b],7.21
6,C[C@@]12COCCN1c1nc(-c3c[nH]c4ccccc34)ncc1N(C1CCOCC1)C2=O [4d],≥ 7.52
7,C[C@@]12COCCN1c1nc(-c3cnc4[nH]ccc4c3)ncc1N(C1(CCO)CC1)C2=O [13d],7.21
8,C[C@@]12COCCN1c1nc(-c3cnc4[nH]ccc4c3)ncc1N(CCCO)C2=O [13c],6.77
9,C[C@@]12COCCN1c1nc(-c3cnc4[nH]ccc4c3)ncc1N(CC1CC1)C2=O [3b],7.29
10,C[C@@]12COCCN1c1nc(-c3cnc4[nH]ccc4c3)ncc1N(C1CCOC1)C2=O (stereo partly drawn) [13a],7.13
11,C[C@@]12COCCN1c1nc(-c3ccc(NC(=O)NC4CC4)cc3)ncc1N(CC1CC1)C2=O [3a],7.42
12,C[C@@]12COCCN1c1nc(-c3cccc4[nH]ccc34)ncc1N(C1CCOCC1)C2=O [4e],≥ 7.52

# Same assay, conditions: Homo sapiens; p-AKT S473, PC-3 cells; mean of N runs; read-out: Cell pEC50 (converted)
row,SMILES,EC50
1,C[C@@]12COCCN1c1nc(-c3cnc4cc[nH]c4c3)ncc1N(CC1CC1)C2=O [3c],91.2 nM
2,COCCCN1C(=O)[C@]2(C)COCCN2c2nc(-c3cnc4[nH]ccc4c3)ncc21 [13b],57.5 nM
3,C[C@@]12COCCN1c1nc(-c3cnc4cc[nH]c4c3)ncc1N(C1CCOCC1)C2=O [4c],105 nM
4,C[C@@]12COCCN1c1nc(-c3cccc4[nH]ccc34)ncc1N([C@H]1CC[C@@H](O)CC1)C2=O [14b],14.1 nM
5,C[C@@]12COCCN1c1nc(-c3cnc4[nH]ccc4c3)ncc1N(C1CCOCC1)C2=O [4b],61.7 nM
6,C[C@@]12COCCN1c1nc(-c3c[nH]c4ccccc34)ncc1N(C1CCOCC1)C2=O [4d],29.5 nM
7,C[C@@]12COCCN1c1nc(-c3cnc4[nH]ccc4c3)ncc1N(C1(CCO)CC1)C2=O [13d],61.7 nM
8,C[C@@]12COCCN1c1nc(-c3cnc4[nH]ccc4c3)ncc1N(CCCO)C2=O [13c],170 nM
9,C[C@@]12COCCN1c1nc(-c3cnc4[nH]ccc4c3)ncc1N(CC1CC1)C2=O [3b],51.3 nM
10,C[C@@]12COCCN1c1nc(-c3cnc4[nH]ccc4c3)ncc1N(C1CCOC1)C2=O (stereo partly drawn) [13a],74.1 nM
11,C[C@@]12COCCN1c1nc(-c3ccc(NC(=O)NC4CC4)cc3)ncc1N(CC1CC1)C2=O [3a],38 nM
12,C[C@@]12COCCN1c1nc(-c3cccc4[nH]ccc34)ncc1N(C1CCOCC1)C2=O [4e],21.4 nM

# Same assay, conditions: PC-3 cell line; read-out: pAKT S473 Cell IC50
row,SMILES,pIC50
1,C[C@@]12COCCN1c1nc(-c3c[nH]c4ccccc34)ncc1N(C1CCOCC1)C2=O [4d],7.52
2,C[C@@]12COCCN1c1nc(-c3cccc4[nH]ccc34)ncc1N(C1CCOCC1)C2=O [4e],7.68

# System: not listed separately
# Experiment: Human liver microsome intrinsic clearance
# Assay type: in vitro ADME
# Settings: apparent intrinsic clearance, scaled
row,SMILES,HLM Clint
1,COCCCN1C(=O)[C@]2(C)COCCN2c2nc(-c3cnc4[nH]ccc4c3)ncc21 [13b],32 mL min^–1 kg^–1
2,C[C@@]12COCCN1c1nc(-c3cccc4[nH]ccc34)ncc1N([C@H]1CC[C@@H](O)CC1)C2=O [14b],6 mL min^–1 kg^–1
3,C[C@@]12COCCN1c1nc(-c3cnc4[nH]ccc4c3)ncc1N(C1CCOCC1)C2=O [4b],6 mL min^–1 kg^–1
4,C[C@@]12COCCN1c1nc(-c3cnc4[nH]ccc4c3)ncc1N(C1(CCO)CC1)C2=O [13d],11 mL min^–1 kg^–1
5,C[C@@]12COCCN1c1nc(-c3cnc4[nH]ccc4c3)ncc1N(CCCO)C2=O [13c],9 mL min^–1 kg^–1
6,C[C@@]12COCCN1c1nc(-c3cnc4[nH]ccc4c3)ncc1N(C1CCOC1)C2=O (stereo partly drawn) [13a],12 mL min^–1 kg^–1
7,C[C@@]12COCCN1c1nc(-c3cccc4[nH]ccc34)ncc1N(C1CCOCC1)C2=O [4e],10 mL min^–1 kg^–1

# Biological target: T1, CYP2C8 (Homo sapiens, UniProt P10632)
# T1 sequence (P10632 1-490): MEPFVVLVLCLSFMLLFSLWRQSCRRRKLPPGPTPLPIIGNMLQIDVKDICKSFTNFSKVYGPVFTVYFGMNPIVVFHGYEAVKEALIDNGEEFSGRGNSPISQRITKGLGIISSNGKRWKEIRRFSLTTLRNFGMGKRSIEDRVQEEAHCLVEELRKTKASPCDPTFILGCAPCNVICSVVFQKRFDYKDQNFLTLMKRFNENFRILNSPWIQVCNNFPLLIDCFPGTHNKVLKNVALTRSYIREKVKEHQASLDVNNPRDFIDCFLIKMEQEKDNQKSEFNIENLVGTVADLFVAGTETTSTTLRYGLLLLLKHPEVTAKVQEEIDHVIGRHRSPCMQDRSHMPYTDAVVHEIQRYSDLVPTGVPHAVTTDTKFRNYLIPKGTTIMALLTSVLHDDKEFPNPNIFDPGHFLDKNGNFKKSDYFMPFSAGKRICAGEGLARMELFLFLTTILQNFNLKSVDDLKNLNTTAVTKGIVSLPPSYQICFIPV
# Experiment: CYP inhibition, 2C8
# Assay type: in vitro ADME
# Settings: most potently inhibited CYP isoform
row,SMILES,pIC50
1,C[C@@]12COCCN1c1nc(-c3cccc4[nH]ccc34)ncc1N([C@H]1CC[C@@H](O)CC1)C2=O [14b],5.40

# System: PI3Kα
# Experiment: PI3Kα enzyme selectivity (PI3Kα IC50 over mTOR IC50)
# Assay type: biochemical
# Settings: ratio of PI3Kα enzyme IC50 over mTOR enzyme IC50
SMILES,PI3Kα Sel,PI3Ka sel.
C[C@@]12COCCN1c1nc(-c3cnc4cc[nH]c4c3)ncc1N(CC1CC1)C2=O [3c],26x,
C[C@@]12COCCN1c1nc(-c3cnc4cc[nH]c4c3)ncc1N(C1CCOCC1)C2=O [4c],13x,
C[C@@]12COCCN1c1nc(-c3cccc4[nH]ccc34)ncc1N([C@H]1CC[C@@H](O)CC1)C2=O [14b],,110 ×
C[C@@]12COCCN1c1nc(-c3cnc4[nH]ccc4c3)ncc1N(C1CCOCC1)C2=O [4b],23x,
C[C@@]12COCCN1c1nc(-c3c[nH]c4ccccc34)ncc1N(C1CCOCC1)C2=O [4d],120x,
C[C@@]12COCCN1c1nc(-c3cnc4[nH]ccc4c3)ncc1N(CC1CC1)C2=O [3b],48x,
C[C@@]12COCCN1c1nc(-c3ccc(NC(=O)NC4CC4)cc3)ncc1N(CC1CC1)C2=O [3a],100x,
C[C@@]12COCCN1c1nc(-c3cccc4[nH]ccc34)ncc1N(C1CCOCC1)C2=O [4e],110x,

# Same assay, conditions: ratio of PI3Kα enzyme IC50 over mTOR enzyme IC50; Table 2, unit not given
row,SMILES,PI3Kα Sel
1,COCCCN1C(=O)[C@]2(C)COCCN2c2nc(-c3cnc4[nH]ccc4c3)ncc21 [13b],9
2,C[C@@]12COCCN1c1nc(-c3cccc4[nH]ccc34)ncc1N([C@H]1CC[C@@H](O)CC1)C2=O [14b],110
3,C[C@@]12COCCN1c1nc(-c3cnc4[nH]ccc4c3)ncc1N(C1CCOCC1)C2=O [4b],23
4,C[C@@]12COCCN1c1nc(-c3cnc4[nH]ccc4c3)ncc1N(C1(CCO)CC1)C2=O [13d],59
5,C[C@@]12COCCN1c1nc(-c3cnc4[nH]ccc4c3)ncc1N(CCCO)C2=O [13c],9
6,C[C@@]12COCCN1c1nc(-c3cnc4[nH]ccc4c3)ncc1N(C1CCOC1)C2=O (stereo partly drawn) [13a],5
7,C[C@@]12COCCN1c1nc(-c3cccc4[nH]ccc34)ncc1N(C1CCOCC1)C2=O [4e],110

# System: not listed separately
# Experiment: Rat PK (iv and po)
# Assay type: in vivo
# Settings: estimated from %F, Cl and Qh = 70 mL min^–1 kg^–1
# Text: This was an early indication that the strategy of increasing potency while lowering lipophilicity would allow us to meet our goal of improving prospects for favorable PK and dose.
row,SMILES,frac. abs.
1,C[C@@]12COCCN1c1nc(-c3cccc4[nH]ccc34)ncc1N([C@H]1CC[C@@H](O)CC1)C2=O [14b],100%

# Same assay, conditions: in vivo, 4 mg/kg, iv 1 mpk, po 4 mpk in 0.5% methylcellulose
row,SMILES,bioavailability
1,C[C@@]12COCCN1c1nc(-c3cccc4[nH]ccc34)ncc1N([C@H]1CC[C@@H](O)CC1)C2=O [14b],100%
2,C[C@@]12COCCN1c1nc(-c3cccc4[nH]ccc34)ncc1N(C1CCOCC1)C2=O [4e],91%

# Same assay, conditions: iv 1 mpk
SMILES,Cl,Vd
C[C@@]12COCCN1c1nc(-c3cccc4[nH]ccc34)ncc1N([C@H]1CC[C@@H](O)CC1)C2=O [14b],11 mL min^–1 kg^–1,3.9 L/kg
C[C@@]12COCCN1c1nc(-c3cccc4[nH]ccc34)ncc1N(C1CCOCC1)C2=O [4e],15 mL min^–1 kg^–1,

# Same assay, conditions: po 4 mpk in 0.5% methylcellulose
row,SMILES,Cmax
1,C[C@@]12COCCN1c1nc(-c3cccc4[nH]ccc34)ncc1N([C@H]1CC[C@@H](O)CC1)C2=O [14b],1400 nM
